Measured values as given in patent US11572369B2, “Bicyclic pyridine compositions and methods of using the same for cancer therapy” (UNIVERSITY OF SOUTH CAROLINA, priority 2019, dated 2023).

Key:
Experiment in all cases: KINOMEscan
Assay type in all cases: binding
Conditions in all cases: 2000 nM
[1] = target: ABL1(F317I)-phosphorylated (Homo sapiens, UniProt P00519, F317I)
[2] = target: ABL1(F317L)-nonphosphorylated (Homo sapiens, UniProt P00519, F317L)
ALK(L1196M) = target: T1, ALK(L1196M) (Homo sapiens, UniProt Q9UM73, L1196M)
T1 construct: DNA label (qPCR read-out); purchased KINOMEscan scanMAX panel (DiscoveRx)

ASK2 = target: T2, ASK2 (Homo sapiens, UniProt O95382)
T2 construct: DNA label (qPCR read-out); purchased KINOMEscan scanMAX panel (DiscoveRx)

AURKC = target: T3, AURKC (Homo sapiens, UniProt Q9UQB9)
T3 construct: DNA label (qPCR read-out); purchased KINOMEscan scanMAX panel (DiscoveRx)

BIKE = target: T4, BIKE (Homo sapiens, UniProt Q9NSY1)
T4 construct: DNA label (qPCR read-out); purchased KINOMEscan scanMAX panel (DiscoveRx)

BMPR1B = target: T5, BMPR1B (Homo sapiens, UniProt O00238)
T5 construct: DNA label (for qPCR read-out); purchased KINOMEscan scanMAX panel (DiscoveRx)

BRSK1 = target: T6, BRSK1 (Homo sapiens, UniProt Q8TDC3)
T6 construct: DNA label (for qPCR read-out); purchased KINOMEscan scanMAX panel (DiscoveRx)

CAMK2B = target: T7, CAMK2B (Homo sapiens, UniProt Q13554)
T7 construct: DNA label (qPCR read-out); purchased KINOMEscan (ScanMAX panel service)

CDKL1 = target: T8, CDKL1 (Homo sapiens, UniProt Q00532)
T8 construct: purchased DiscoverX (KINOMEscan service)

CLK2 = target: T9, CLK2 (Homo sapiens, UniProt P49760)
T9 construct: DNA label (for qPCR read-out); purchased DiscoveRx (KINOMEscan scanMAX service)

CLK3 = target: T10, CLK3 (Homo sapiens, UniProt P49761)
T10 construct: DNA label (for qPCR read-out); purchased DiscoveRx (KINOMEscan scanMAX service)

CSNK2A2 = target: T11, CSNK2A2 (Homo sapiens, UniProt P19784)
T11 construct: DNA label; purchased DiscoveRx (KINOMEscan scanMAX panel)

DAPK2 = target: T12, DAPK2 (Homo sapiens, UniProt Q9UIK4)
T12 construct: DNA label; purchased DiscoveRx (KINOMEscan scanMAX panel)

EGFR(G719S) = target: T13, EGFR(G719S) (Homo sapiens, UniProt P00533, G719S)
T13 construct: purchased DiscoveRx (KINOMEscan scanMAX panel)

EPHA6 = target: T14, EPHA6 (Homo sapiens, UniProt Q9UF33)
T14 construct: purchased DiscoveRx (KINOMEscan scanMAX panel)

FAK = target: T15, FAK (Homo sapiens, UniProt Q05397)
T15 construct: DNA label (qPCR read-out); purchased DiscoveRx (KINOMEscan ScanMAX panel)

FGFR3(G697C) = target: T16, FGFR3(G697C) (Homo sapiens, UniProt P22607, G697C)
T16 construct: purchased DiscoveRx (KINOMEscan scanMAX panel)

FLT3(N841I) = target: T17, FLT3(N841I) (Homo sapiens, UniProt P36888, N841I)
T17 construct: purchased KINOMEscan (DiscoveRx)

HPK1 = target: T18, HPK1 (Homo sapiens, UniProt Q92918)
T18 construct: DNA label (for qPCR read-out); purchased DiscoveRx (KINOMEscan scanMAX panel, contract assay)

IRAK4 = target: T19, IRAK4 (Homo sapiens, UniProt Q9NWZ3)
T19 construct: DNA label (qPCR read-out); purchased KINOMEscan (DiscoveRx) ScanMAX panel

ITK = target: T20, ITK (Homo sapiens, UniProt Q08881)
T20 construct: DNA label (qPCR read-out); purchased KINOMEscan (DiscoveRx) ScanMAX panel

LATS1 = target: T21, LATS1 (Homo sapiens, UniProt O95835)
T21 construct: purchased KINOMEscan (DiscoveRx) panel service

LRRK2 = target: T22, LRRK2 (Homo sapiens, UniProt Q5S007)
T22 construct: purchased KINOMEscan (DiscoveRx) panel service

[3] = target: T23, (Homo sapiens, UniProt P20794)
T23 construct: DNA label (qPCR read-out); purchased DiscoverX (KINOMEscan service)

NEK6 = target: T24, NEK6 (Homo sapiens, UniProt Q9HC98)
T24 construct: DNA label (qPCR read-out); purchased KINOMEscan (ScanMAX panel service)

PHKG2 = target: T25, PHKG2 (Homo sapiens, UniProt P15735)
T25 construct: DNA label (for qPCR read-out); purchased DiscoveRx (KINOMEscan scanMAX service)

RIOK3 = target: T26, RIOK3 (Homo sapiens, UniProt O14730)
T26 construct: DNA label (qPCR read-out); purchased DiscoveRx (KINOMEscan ScanMAX panel)

SGK3 = target: T27, SGK3 (Homo sapiens, UniProt Q96BR1)
T27 construct: purchased KINOMEscan (DiscoveRx)

SIK = target: T28, SIK (Homo sapiens, UniProt P57059)
T28 construct: purchased KINOMEscan (DiscoveRx)

SRPK3 = target: T29, SRPK3 (Homo sapiens, UniProt Q9UPE1)
T29 construct: purchased KINOMEscan (DiscoveRx)

TRKA = target: T30, TRKA (Homo sapiens, UniProt P04629)
T30 construct: DNA label (qPCR read-out); purchased KINOMEscan (DiscoveRx) ScanMAX panel

TRPM6 = target: T31, TRPM6 (Homo sapiens, UniProt Q9BX84)
T31 construct: DNA label (for qPCR read-out); purchased DiscoveRx (KINOMEscan scanMAX panel)

WNK3 = target: T32, WNK3 (Homo sapiens, UniProt Q9BYP7)
T32 construct: purchased KINOMEscan (DiscoveRx) panel service

YES = target: T33, YES (Homo sapiens, UniProt P07947)
T33 construct: purchased KINOMEscan (DiscoveRx) panel service

T23 sequence (P20794 whole entry): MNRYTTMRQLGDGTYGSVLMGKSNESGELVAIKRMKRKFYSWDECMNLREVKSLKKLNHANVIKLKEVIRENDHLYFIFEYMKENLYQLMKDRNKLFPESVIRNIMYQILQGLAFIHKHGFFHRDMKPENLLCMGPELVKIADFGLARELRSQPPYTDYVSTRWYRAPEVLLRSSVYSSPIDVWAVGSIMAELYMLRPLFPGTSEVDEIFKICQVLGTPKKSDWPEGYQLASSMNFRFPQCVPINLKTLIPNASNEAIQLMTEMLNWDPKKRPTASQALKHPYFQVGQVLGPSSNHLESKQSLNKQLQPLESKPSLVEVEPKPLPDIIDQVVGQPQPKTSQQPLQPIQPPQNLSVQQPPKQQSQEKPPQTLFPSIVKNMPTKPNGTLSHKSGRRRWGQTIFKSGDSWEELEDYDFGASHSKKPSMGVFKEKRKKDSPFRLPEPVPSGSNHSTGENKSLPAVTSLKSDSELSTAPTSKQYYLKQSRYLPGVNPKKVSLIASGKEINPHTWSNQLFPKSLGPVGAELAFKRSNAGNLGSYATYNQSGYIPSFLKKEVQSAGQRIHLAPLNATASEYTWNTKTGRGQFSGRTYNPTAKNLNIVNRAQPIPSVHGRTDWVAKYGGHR
T18 sequence (Q92918 whole entry): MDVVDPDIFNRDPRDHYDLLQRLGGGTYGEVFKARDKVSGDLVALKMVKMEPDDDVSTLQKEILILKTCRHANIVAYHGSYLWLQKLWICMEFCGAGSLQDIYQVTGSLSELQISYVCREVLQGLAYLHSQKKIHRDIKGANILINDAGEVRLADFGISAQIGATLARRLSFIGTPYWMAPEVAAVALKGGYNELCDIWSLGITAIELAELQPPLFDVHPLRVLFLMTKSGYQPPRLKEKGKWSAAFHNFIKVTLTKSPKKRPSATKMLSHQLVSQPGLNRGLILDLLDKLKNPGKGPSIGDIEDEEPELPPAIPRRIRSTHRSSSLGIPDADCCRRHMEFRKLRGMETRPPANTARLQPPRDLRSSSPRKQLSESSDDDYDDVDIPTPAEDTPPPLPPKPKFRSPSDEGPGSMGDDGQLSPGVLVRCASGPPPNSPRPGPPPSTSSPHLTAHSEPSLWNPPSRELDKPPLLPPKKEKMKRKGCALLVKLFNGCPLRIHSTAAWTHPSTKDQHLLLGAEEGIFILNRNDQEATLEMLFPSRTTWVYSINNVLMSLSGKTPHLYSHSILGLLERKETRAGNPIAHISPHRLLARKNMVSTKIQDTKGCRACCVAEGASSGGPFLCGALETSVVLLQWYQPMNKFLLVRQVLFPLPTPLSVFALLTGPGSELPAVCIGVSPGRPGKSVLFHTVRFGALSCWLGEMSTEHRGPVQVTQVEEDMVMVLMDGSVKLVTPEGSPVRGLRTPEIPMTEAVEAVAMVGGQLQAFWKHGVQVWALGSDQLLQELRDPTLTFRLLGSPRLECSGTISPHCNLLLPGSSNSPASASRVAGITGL
T15 sequence (Q05397 whole entry): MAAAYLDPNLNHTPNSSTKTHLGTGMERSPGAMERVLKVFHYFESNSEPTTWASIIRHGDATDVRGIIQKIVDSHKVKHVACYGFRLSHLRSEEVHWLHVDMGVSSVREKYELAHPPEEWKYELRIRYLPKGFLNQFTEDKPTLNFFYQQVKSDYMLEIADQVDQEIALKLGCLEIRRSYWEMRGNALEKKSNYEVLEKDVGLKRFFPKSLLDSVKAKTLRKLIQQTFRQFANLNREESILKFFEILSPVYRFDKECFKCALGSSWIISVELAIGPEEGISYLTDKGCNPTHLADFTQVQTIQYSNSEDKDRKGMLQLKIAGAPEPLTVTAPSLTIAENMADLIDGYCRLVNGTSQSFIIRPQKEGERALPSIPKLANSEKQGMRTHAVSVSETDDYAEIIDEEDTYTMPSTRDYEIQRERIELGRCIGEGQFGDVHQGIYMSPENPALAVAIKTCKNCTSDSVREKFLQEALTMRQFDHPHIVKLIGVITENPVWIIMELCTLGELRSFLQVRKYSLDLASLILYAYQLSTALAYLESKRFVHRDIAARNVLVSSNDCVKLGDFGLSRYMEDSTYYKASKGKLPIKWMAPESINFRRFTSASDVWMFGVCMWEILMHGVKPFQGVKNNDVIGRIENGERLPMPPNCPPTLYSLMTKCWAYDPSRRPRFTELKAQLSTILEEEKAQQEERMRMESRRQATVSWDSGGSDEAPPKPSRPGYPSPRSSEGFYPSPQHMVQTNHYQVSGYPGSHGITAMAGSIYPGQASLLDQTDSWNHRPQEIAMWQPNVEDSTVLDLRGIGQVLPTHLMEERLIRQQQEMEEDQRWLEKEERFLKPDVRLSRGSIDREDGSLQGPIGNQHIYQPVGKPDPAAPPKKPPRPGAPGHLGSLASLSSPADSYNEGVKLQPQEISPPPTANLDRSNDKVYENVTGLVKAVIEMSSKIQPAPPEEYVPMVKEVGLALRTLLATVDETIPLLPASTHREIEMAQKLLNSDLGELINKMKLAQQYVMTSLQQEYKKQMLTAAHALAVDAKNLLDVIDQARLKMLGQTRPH
T27 sequence (Q96BR1 whole entry): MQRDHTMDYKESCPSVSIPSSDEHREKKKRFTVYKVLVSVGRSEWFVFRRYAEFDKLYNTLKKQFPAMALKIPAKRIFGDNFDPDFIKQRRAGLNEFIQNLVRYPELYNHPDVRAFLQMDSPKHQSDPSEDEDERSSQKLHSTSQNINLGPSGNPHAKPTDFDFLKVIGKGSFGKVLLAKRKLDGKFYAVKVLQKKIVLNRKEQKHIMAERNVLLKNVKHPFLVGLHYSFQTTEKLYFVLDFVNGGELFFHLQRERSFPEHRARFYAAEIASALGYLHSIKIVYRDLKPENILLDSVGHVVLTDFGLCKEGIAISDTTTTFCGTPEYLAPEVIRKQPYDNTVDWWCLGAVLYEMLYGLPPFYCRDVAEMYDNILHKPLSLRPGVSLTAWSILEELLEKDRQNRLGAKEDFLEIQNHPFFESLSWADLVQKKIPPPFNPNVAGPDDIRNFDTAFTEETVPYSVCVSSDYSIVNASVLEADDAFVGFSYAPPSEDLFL
T19 sequence (Q9NWZ3 whole entry): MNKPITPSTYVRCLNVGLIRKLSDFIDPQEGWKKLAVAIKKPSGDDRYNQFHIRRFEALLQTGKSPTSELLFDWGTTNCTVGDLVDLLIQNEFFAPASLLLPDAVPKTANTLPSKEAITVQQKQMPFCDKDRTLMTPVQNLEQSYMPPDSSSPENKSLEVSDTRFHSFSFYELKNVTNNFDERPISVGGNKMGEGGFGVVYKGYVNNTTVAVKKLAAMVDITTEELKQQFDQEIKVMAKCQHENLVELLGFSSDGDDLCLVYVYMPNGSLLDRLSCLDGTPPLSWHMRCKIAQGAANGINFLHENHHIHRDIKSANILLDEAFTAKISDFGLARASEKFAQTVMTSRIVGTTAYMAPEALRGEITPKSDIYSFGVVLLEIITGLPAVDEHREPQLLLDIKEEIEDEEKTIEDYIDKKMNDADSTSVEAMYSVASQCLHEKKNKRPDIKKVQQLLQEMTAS
T21 sequence (O95835 whole entry): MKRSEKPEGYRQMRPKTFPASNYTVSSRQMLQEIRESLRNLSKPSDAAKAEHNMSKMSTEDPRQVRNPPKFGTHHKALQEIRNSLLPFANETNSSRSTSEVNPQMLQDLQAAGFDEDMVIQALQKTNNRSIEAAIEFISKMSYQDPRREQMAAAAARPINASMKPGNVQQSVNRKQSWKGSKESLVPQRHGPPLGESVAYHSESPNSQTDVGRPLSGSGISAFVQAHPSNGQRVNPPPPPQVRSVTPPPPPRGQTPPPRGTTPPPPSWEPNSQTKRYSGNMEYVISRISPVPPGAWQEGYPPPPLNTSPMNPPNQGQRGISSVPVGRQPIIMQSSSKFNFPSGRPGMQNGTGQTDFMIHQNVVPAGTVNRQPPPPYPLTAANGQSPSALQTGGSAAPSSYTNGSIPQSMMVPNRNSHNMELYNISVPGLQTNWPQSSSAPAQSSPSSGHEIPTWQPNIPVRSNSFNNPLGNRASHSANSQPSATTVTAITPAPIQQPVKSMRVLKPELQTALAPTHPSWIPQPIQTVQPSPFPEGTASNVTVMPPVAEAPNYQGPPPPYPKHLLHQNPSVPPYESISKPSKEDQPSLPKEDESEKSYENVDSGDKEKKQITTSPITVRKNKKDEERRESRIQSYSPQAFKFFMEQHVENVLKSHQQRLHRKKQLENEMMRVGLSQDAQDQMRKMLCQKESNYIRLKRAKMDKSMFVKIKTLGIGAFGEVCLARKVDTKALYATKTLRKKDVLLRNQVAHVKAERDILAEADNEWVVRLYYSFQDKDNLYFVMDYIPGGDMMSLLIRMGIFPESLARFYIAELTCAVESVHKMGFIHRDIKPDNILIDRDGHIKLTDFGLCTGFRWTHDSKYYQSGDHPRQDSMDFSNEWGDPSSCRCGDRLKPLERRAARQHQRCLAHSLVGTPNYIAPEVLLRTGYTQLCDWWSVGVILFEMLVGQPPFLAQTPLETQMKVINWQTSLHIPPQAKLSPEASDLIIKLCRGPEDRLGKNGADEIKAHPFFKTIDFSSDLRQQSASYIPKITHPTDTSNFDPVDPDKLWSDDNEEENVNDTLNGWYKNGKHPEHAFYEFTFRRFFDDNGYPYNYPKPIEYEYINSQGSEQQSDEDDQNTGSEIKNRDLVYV
T12 sequence (Q9UIK4 whole entry): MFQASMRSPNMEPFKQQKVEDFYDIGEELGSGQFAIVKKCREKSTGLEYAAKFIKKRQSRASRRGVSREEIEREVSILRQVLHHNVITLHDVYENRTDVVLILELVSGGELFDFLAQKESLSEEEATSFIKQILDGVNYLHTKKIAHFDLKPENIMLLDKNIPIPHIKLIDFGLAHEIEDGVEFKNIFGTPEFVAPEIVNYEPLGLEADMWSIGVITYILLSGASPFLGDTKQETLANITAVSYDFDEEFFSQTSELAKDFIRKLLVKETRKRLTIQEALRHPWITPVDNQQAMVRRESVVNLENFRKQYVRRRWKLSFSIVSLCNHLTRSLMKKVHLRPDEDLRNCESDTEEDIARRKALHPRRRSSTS

Row | SMILES | % Ctrl [1] | % Ctrl [2] | % Ctrl (ALK(L1196M)) | % Ctrl (ASK2) | % Ctrl (AURKC) | % Ctrl (BIKE) | % Ctrl (BMPR1B) | % Ctrl (BRSK1) | % Ctrl (CAMK2B) | % Ctrl (CDKL1) | % Ctrl (CLK2) | % Ctrl (CLK3) | % Ctrl (CSNK2A2) | % Ctrl (DAPK2) | % Ctrl (EGFR(G719S)) | % Ctrl (EPHA6) | % Ctrl (FAK) | % Ctrl (FGFR3(G697C)) | % Ctrl (FLT3(N841I)) | % Ctrl (HPK1) | also measured
1 | CN(C)C(=O)c1ccc(N2CCCN(c3ccnc4sc(C(N)=O)c(N)c34)CC2)cc1 [15u, 3-amino-4-(4-(4-(dimethylcarbamoyl)phenyl)-1,4-diazepan-1-yl)thieno[2,3-b]pyridine-2-carboxamide] | 88 % Ctrl | 99 % Ctrl | 96 % Ctrl | 90 % Ctrl | 100 % Ctrl | 100 % Ctrl | 100 % Ctrl | 86 % Ctrl | 92 % Ctrl | 100 % Ctrl | 75 % Ctrl | 100 % Ctrl | 92 % Ctrl | 75 % Ctrl | 100 % Ctrl | 100 % Ctrl | 100 % Ctrl | 95 % Ctrl | 90 % Ctrl | 98 % Ctrl | % Ctrl (IRAK4): 89 % Ctrl; % Ctrl (ITK): 88 % Ctrl; % Ctrl (LATS1): 89 % Ctrl; % Ctrl (LRRK2): 94 % Ctrl; % Ctrl [3]: 100 % Ctrl; % Ctrl (NEK6): 92 % Ctrl; % Ctrl (PHKG2): 86 % Ctrl; % Ctrl (RIOK3): 100 % Ctrl; % Ctrl (SGK3): 79 % Ctrl; % Ctrl (SIK): 84 % Ctrl; % Ctrl (SRPK3): 65 % Ctrl; % Ctrl (TRKA): 93 % Ctrl; % Ctrl (TRPM6): 100 % Ctrl; % Ctrl (WNK3): 97 % Ctrl; % Ctrl (YES): 99 % Ctrl
2 | [2H]C([2H])([2H])N(C(=O)c1ccc(N2CCCN(c3ccnc4sc(C(N)=O)c(N)c34)CC2)cc1)C([2H])([2H])[2H] [15u_D6, 3-amino-4-(4-(4-(bis(methyl-d3)carbamoyl)phenyl)-1,4-diazepan-1-yl)thieno[2,3-b]pyridine-2-carboxamide] | 84 % Ctrl | 100 % Ctrl | 92 % Ctrl | 88 % Ctrl | 100 % Ctrl | 96 % Ctrl | 62 % Ctrl | 97 % Ctrl | 87 % Ctrl | 92 % Ctrl | 83 % Ctrl | 95 % Ctrl | 100 % Ctrl | 85 % Ctrl | 100 % Ctrl | 100 % Ctrl | 96 % Ctrl | 100 % Ctrl | 86 % Ctrl | 100 % Ctrl | % Ctrl (IRAK4): 78 % Ctrl; % Ctrl (ITK): 87 % Ctrl; % Ctrl (LATS1): 97 % Ctrl; % Ctrl (LRRK2): 70 % Ctrl; % Ctrl [3]: 91 % Ctrl; % Ctrl (NEK6): 100 % Ctrl; % Ctrl (PHKG2): 83 % Ctrl; % Ctrl (RIOK3): 95 % Ctrl; % Ctrl (SGK3): 80 % Ctrl; % Ctrl (SIK): 79 % Ctrl; % Ctrl (SRPK3): 96 % Ctrl; % Ctrl (TRKA): 78 % Ctrl; % Ctrl (TRPM6): 80 % Ctrl; % Ctrl (WNK3): 100 % Ctrl; % Ctrl (YES): 100 % Ctrl
